Measurements from patent US8961944B2, “Use of delta-tocopheryl-carbohydrate as a depigmenting agent” (Pierre Fabre Dermo-Cosmetique, priority 2009, dated 2015).
Like-named read-outs stand apart in the source and are kept apart here.

Columns and labels:
B16-F10 cells = assay: Inhibition of α-MSH-stimulated melanogenesis (intracellular melanin) in B16-F10 cells; assay type: cell-based; settings: for percent inhibition of intracellular melanin / inhibition at 50 µM: 50 μM; for percent inhibition of intracellular melanin / inhibition at 10 µM / inhibition at 50 µM: α-MSH (0.1 μM) stimulation; for inhibition at 10 µM / inhibition at 50 µM: Mus musculus, read-out: percent inhibition of intracellular melanin
Procedure: B16-F10 cells are inoculated in 96-well plates in DMEM (Dulbecco's Modified Eagle's Medium) supplemented with Foetal Calf Serum (FCS) and incubated for 24 hours at 37° C., 5% CO2. Melanogenesis is stimulated by α-MSH (0.1 μM) for 3 or 5 days. Each concentration of active substance is tested in triplicate. Total melanin and intracellular melanin dissolved in lysis buffer are then assayed by reading absorbance at 405 nm. Total proteins are assayed in the lysate according to protocol “SRD/TO/154/012” and the results are expressed in mg melanin/mg proteins. The percentage of activity is calculated as follows: % inhibition=[([…])/NMC]×100 NMC being the normalised mean of the control NMT being the normalised mean of the treated

glucocerebrosidase = molecular target: T1, glucocerebrosidase (Homo sapiens, UniProt P04062); settings: compared with reference derivative 4-methylumbelliferyl glucopyranoside; cited from earlier work
T1 sequence (P04062 40-536): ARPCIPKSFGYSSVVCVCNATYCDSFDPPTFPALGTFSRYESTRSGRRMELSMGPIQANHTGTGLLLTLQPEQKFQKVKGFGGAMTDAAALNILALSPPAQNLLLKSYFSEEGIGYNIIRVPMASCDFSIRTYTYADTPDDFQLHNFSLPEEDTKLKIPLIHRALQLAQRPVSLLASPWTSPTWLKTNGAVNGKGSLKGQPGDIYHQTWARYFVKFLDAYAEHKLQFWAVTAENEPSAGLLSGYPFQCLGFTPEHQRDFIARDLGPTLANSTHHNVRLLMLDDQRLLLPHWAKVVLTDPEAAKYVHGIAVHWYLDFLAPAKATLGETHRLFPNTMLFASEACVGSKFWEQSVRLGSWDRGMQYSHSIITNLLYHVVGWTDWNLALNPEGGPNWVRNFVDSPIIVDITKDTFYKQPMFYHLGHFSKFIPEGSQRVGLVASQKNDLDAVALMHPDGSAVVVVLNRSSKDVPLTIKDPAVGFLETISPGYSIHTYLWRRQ

[1] = compared with delta-tocopherol; cited from earlier work

For `Cc1cc(O)cc2c1O[C@](C)(CCC[C@H](C)CCC[C@H](C)CCCC(C)C)CC2` [Delta-tocopherol, delta-tocopherol, reference compound], which “percent inhibition of intracellular melanin” value (B16-F10 cells; 3 days) is on record?
The value was 41%.

And the “percent inhibition of intracellular melanin” value (B16-F10 cells; 5 days)?
The value was 48%.

What does the source list for `Cc1cc(O[C@@H]2O[C@H](CO)[C@@H](O)[C@H](O)[C@H]2O)cc2c1O[C@](C)(CCC[C@H](C)CCC[C@H](C)CCCC(C)C)CC2` [Delta-tocopheryl-glucopyranoside, delta-tocopheryl-glucopyranoside]?
release of delta-tocopherol by enzymatic hydrolysis (glucocerebrosidase): slowly releases delta-tocopherol, with lower kinetics than a reference derivative; inhibition at 10 µM (B16-F10 cells; B16-F10, 72 h, 3 days): 22%; inhibition at 50 µM (B16-F10 cells; B16-F10, 72 h, 3 days): 68%; inhibition at 10 µM (B16-F10 cells; B16-F10, 120 h, 5 days): 38%; inhibition at 50 µM (B16-F10 cells; B16-F10, 120 h, 5 days): 90%; depigmenting activity (B16-F10 cells; compared with delta-tocopherol (see example 1)): quite higher than that of delta-tocopherol; antioxidant capacity [1]: weak antioxidant capacity compared to that of delta-tocopherol
